In US20260242352A1, “INHIBITION OF SHIP1 AS A THERAPEUTIC STRATEGY FOR THE TREATMENT OF ALZHEIMER'S DISEASE” (The Trustees of Indiana University, priority 2022, published 2026):

Molecular target: T1, HiBit-labeled full length SHIP1 protein (Homo sapiens, UniProt Q92835)
T1 construct: thermal stability of a HiBit-labeled full length SHIP1 protein in intact cells; expressed in transfected cells; host or cells: HMC3 (stably transfected)
T1 sequence (Q92835 1-1189): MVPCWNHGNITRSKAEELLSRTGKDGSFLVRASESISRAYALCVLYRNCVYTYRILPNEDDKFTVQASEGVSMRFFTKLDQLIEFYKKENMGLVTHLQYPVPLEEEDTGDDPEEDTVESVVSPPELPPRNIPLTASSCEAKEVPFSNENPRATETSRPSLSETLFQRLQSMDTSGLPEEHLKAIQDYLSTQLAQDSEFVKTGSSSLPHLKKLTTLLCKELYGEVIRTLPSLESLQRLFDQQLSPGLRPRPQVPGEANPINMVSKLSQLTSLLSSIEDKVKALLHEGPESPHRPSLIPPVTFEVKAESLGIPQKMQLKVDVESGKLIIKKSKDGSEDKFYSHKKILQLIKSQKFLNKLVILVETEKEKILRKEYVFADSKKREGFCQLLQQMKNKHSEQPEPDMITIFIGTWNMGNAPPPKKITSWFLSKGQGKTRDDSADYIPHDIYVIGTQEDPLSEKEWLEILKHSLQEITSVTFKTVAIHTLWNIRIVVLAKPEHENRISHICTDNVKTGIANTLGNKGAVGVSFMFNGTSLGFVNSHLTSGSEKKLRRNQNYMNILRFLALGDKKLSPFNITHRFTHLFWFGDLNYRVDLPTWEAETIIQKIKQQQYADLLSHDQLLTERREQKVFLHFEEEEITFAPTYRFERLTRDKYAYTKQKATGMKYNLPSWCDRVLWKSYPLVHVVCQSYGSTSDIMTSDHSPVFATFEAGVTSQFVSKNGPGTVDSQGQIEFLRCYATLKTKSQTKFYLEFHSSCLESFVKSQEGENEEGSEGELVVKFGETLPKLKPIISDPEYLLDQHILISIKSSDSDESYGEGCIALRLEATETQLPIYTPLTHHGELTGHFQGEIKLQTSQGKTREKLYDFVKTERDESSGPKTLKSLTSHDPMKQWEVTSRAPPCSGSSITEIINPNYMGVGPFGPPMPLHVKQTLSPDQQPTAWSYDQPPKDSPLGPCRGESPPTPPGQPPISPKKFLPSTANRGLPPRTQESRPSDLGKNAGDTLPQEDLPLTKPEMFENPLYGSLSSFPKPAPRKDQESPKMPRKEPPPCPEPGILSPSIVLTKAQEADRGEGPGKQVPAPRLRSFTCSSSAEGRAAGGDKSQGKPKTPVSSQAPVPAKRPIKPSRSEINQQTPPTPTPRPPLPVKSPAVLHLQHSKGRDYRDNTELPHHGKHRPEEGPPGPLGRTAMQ
Experiment: Cellular thermal shift assay (SplitLuc CETSA), compound dose response
Type: cell-based
Conditions: HMC3/HiBit-INPP5D cells, 60 min; for CETSA Min Inhibition (%): heated at 44.2° C.; for AC50: heated at 44.2° C. for 3 min, 8-point curve from 80 uM or 100 uM
Protocol: Cellular thermal shift assay (CETSA). […] This assay was run in the following two formats with HMC3/HiBit-INPP5D stably transfected cells.
2. Compound dose response: run at target Tm (44.2° C. for SHIP1) with compound dosing from 80 uM or 100 uM with 1:3 serial dilutions to generate an 8 point curve. Cells were treated for 60 min before being heated at target Tm for 3 min before luminescence detection. An AC50 was calculated using a four-parameter logistic curve regression model with change at highest concentration noted when difference from control >3SD, otherwise AC50 marked as “nc” for not calculated.
See Martinez et al. (2018) Sci Rep 8: p. 9472; Oh-Hashi et al. (2017) Biochem Biophys Rep 12: pp. 40-45. This assay was run in the following two formats with HMC3/HiBit-INPP5D stably transfected cells.
Compound dose response: run at target Tm (44.2° C. for SHIP1) with compound dosing from 80 uM or 100 uM with 1:3 serial dilutions to generate an 8-point curve. Cells were treated for 60 min before being heated at target Tm for 3 min before luminescence detection. The concentration that induced a half-maximum response (AC50) was calculated using a four-parameter logistic curve regression model with change at highest concentration noted when difference from control >3SD.

SMILES | CETSA Min Inhibition (%) | AC50 [µM]
Cl.Clc1ccccc1COc1cncc(-c2cnn(C3CCNCC3)c2)c1 [Compound 9, 3-((2-chlorobenzyl)oxy)-5-(1-(piperidin-4-yl)-1H-pyrazol-4-yl)pyridine hydrochloride] | 16.0 | 55
Clc1ccccc1COc1cncc(-n2cc(C3CCNCC3)cn2)c1 [Compound 28, 3-((2-chlorobenzyl)oxy)-5-(4-(piperidin-4-yl)-1H-pyrazol-1-yl)pyridine] | 5.98 | 55.5
CC(C)(C)CC(=O)N1CCC(n2cc(-c3cncc(OCc4ccccc4Cl)c3)cn2)CC1 [Compound 16, 1-(4-(4-(5-((2-chlorobenzyl)oxy)pyridin-3-yl)-1H-pyrazol-1-yl)piperidin-1-yl)-3,3-dimethylbutan-1-one] | 64.5 | 79.6
CC(C)(C)CCN1CCC(n2cc(-c3cncc(OCc4ccccc4Cl)c3)cn2)CC1 [Compound 15, 3-((2-chlorobenzyl)oxy)-5-(1-(1-(3,3-dimethylbutyl)piperidin-4-yl)-1H-pyrazol-4-yl)pyridine] | 66.7 | –
Clc1ccccc1COc1cncc(-n2ccc(C3CCNCC3)n2)c1 [Compound 27, 3-((2-chlorobenzyl)oxy)-5-(3-(piperidin-4-yl)-1H-pyrazol-1-yl)pyridine] | 10.1 | 57.1
Cc1ccccc1COc1cncc(-c2cnn(C3CCNCC3)c2)c1 [Compound 25, 3-[(2-Methylphenyl)methoxy]-5-[1-(piperidin-4-yl)-1H-pyrazol-4-yl]pyridine] | 24.9 | 83.6
Cl.Clc1ccc(COc2cncc(-c3cnn(C4CCNCC4)c3)c2)c(Cl)c1 [Compound 10, 3-((2,4-dichlorobenzyl)oxy)-5-(1-(piperidin-4-yl)-1H-pyrazol-4-yl)pyridine hydrochloride] | 10.2 | 53.8
Clc1ccccc1COc1cncc(-c2ccn(C3CCNCC3)n2)c1 [Compound 26, 3-((2-chlorobenzyl)oxy)-5-(1-(piperidin-4-yl)-1H-pyrazol-3-yl)pyridine] | 14.6 | 87.4
C[C@H](Oc1cncc(-c2cnn(C3CCNCC3)c2)c1)c1ccccc1Cl [Compound 21, (S)-3-(1-(2-chlorophenyl)ethoxy)-5-(1-(piperidin-4-yl)-1H-pyrazol-4-yl)pyridine] | 24.9 | 54.7
CC(C)(C)OC(=O)N1CCC(n2cc(-c3cncc(OCc4ccccc4Cl)c3)cn2)CC1 [Compound 1, tert-butyl 4-(4-{5-[(2-chlorophenyl)methoxy]pyridin-3-yl}-1H-pyrazol-1-yl)piperidine-1-carboxylate] | 74.7 | –
C[C@@H](Oc1cncc(-c2cnn(C3CCNCC3)c2)c1)c1ccccc1Cl [Compound 22, (R)-3-(1-(2-chlorophenyl)ethoxy)-5-(1-(piperidin-4-yl)-1H-pyrazol-4-yl)pyridine] | 24.6 | 43.4
Clc1ccccc1COc1cccc(-c2cnn(C3CCNCC3)c2)c1 [Compound 29, 4-(4-(3-((2-chlorobenzyl)oxy)phenyl)-1H-pyrazol-1-yl)piperidine] | 28.4 | 55
C[C@@H](Oc1cncc(-c2cnn(C3CCNCC3)c2)c1)c1ccc(Cl)cc1 [Compound 23, (R)-3-(1-(4-chlorophenyl)ethoxy)-5-(1-(piperidin-4-yl)-1H-pyrazol-4-yl)pyridine] | 8.15 | 50.6
CC(C)(C)OC(=O)N1CCC(n2cc(-c3cncc(OCc4ccccc4)c3)cn2)CC1 [Compound 4, tert-butyl 4-(4-(5-(benzyloxy)pyridin-3-yl)-1H-pyrazol-1-yl)piperidine-1-carboxylate] | 69.2 | > 80
Cc1ccccc1COc1cncc(-c2cnn(C3CCN(C(=O)OC(C)(C)C)CC3)c2)c1 [Compound 3, tert-butyl 4-(4-(5-((2-methylbenzyl)oxy)pyridin-3-yl)-1H-pyrazol-1-yl)piperidine-1-carboxylate] | 60.8 | 77
CC(C)(C)OC(=O)N1CCC(n2cc(-c3cncc(OCc4ccccc4F)c3)cn2)CC1 [Compound 2, tert-butyl 4-(4-(5-((2-fluorobenzyl)oxy)pyridin-3-yl)-1H-pyrazol-1-yl)piperidine-1-carboxylate] | 70.6 | –
CC(C)(C)OC(=O)N1CCC(n2cc(-c3cncc(OCc4ccc(Br)cc4)c3)cn2)CC1 [Compound 7, tert-butyl 4-(4-(5-((4-bromobenzyl)oxy)pyridin-3-yl)-1H-pyrazol-1-yl)piperidine-1-carboxylate] | 66.3 | –
